# Test results: US10272158B2, “Compounds for treating biofilm infection” (Board of Regents, The University of Texas System, priority 2014, dated 2019)
# Where “and” joins values, the source holds several entries; their conditions need not be identical. Equal values may be shown once.
# Key:
# Assay type in all cases: cell-based, Pseudomonas aeruginosa PAO1
# [1] = tested on: P. aeruginosa pre-formed biofilm; assay: Elimination of pre-formed biofilm in time dependent test (XTT); conditions: each at its biofilm MIC80 (Tob-PEG 27.81, tobramycin 89.80 μmol/L), 1-36 h
# Experimental: P. aeruginosa pre-formed biofilm was developed as described previously and was treated with different samples at respective biofilm MIC80 concentrations. The plates were then incubated for 24 h at 37° C. and 80 rpm. XTT reduction assay was performed to selected samples at predetermined time points (1 h, 2 h, 3 h, 4 h, 5 h, 6 h, 9 h, 12 h, 15 h, 18 h, 21 h, 24 h and 36 h after incubation) to assess the percentage of time dependent bacterial inhibition.
# [2] = tested on: P. aeruginosa biofilm formation phase; assay: MIC80 in biofilm formation phase, XTT reduction assay; conditions: Pseudomonas aeruginosa, 24 h, read-out: critical concentration necessary for 80% suppression of P. aeruginosa viability (MIC80)
# Experimental: (§1) Pseudomonas aeruginosa (P. aeruginosa) PAO1 was used throughout the study. Blood agar and Brain heart infusion (BHI) solution were used for culturing P. aeruginosa.
# (§2) Prior to each experiment, P. aeruginosa was cultured on blood agar for 18 h at 37° C. A loopful of the overnight bacterial growth was inoculated into BHI medium, and incubated for 18 h in an orbital shaker (80 rpm) at 37° C. The resultant growth was harvested, washed twice in Phosphate Buffered Saline (PBS, pH 7.4) and resuspended. The concentration of P. aeruginosa was adjusted to 1×10^7 cells/mL by spectrophotometry and confirmed by hemocytometric counting.
# (§3) P. aeruginosa biofilm was developed as described (Bandara et al., 2010) with minor modifications. Commercially available pre-sterilized, polystyrene, flat bottom 96-well microtiter plates (BD Biosciences, California, USA) were used. […]
# Bacterial cell suspension was added in sterile 96 well plates and incubated for 90 min under similar conditions as described in the section of Biofilm Formation. […] After 24 h incubation under 37° C. and 80 rpm, reduction assay of 2,3-bis(2-methoxy-4-nitro-5-sulfo-phenyl)-2H-tetrazolium-5-carboxanilide (XTT) was performed to quantify the viability of biofilm and crystal violet assay was used to measure biofilm biomass.
# [3] = tested on: P. aeruginosa pre-formed biofilm; assay: MIC80 in pre-formed biofilm phase, XTT reduction assay; conditions: pre-formed biofilm (24 h), 24 h treatment
# Experimental: as §1, §2, §3
# P. aeruginosa pre-formed biofilm was developed after 24 h incubation of adherent cells in sterile 96 well plates, as described in the section of Biofilm Formation. […] At the end of incubation period, XTT reduction assay was performed to quantify the viability of biofilm and crystal violet assay was used to measure biofilm biomass.
# [4] = tested on: P. aeruginosa biofilm formation phase; assay: Crystal violet assay of biofilm biomass, biofilm formation phase
# Experimental: Bacterial cell suspension was added in sterile 96 well plates and incubated for 90 min under similar conditions as described in the section of Biofilm Formation. After the initial adhesion phase, adherent cells were treated with different samples in a concentration gradient, including control (PBS), tobramycin, and Tob-PEG. After 24 h incubation under 37° C. and 80 rpm, reduction assay of 2,3-bis(2-methoxy-4-nitro-5-sulfo-phenyl)-2H-tetrazolium-5-carboxanilide (XTT) was performed to quantify the viability of biofilm and crystal violet assay was used to measure biofilm biomass. At the end of incubation of both test and control biofilm, crystal violet assay was performed to quantify biofilm biomass. Biofilm was carefully washed twice with PBS and stained with 1% crystal violet solution for 15 min at 25° C. without shaking. Wells were carefully washed three times with PBS to remove excess stain and air dried in room temperature. Thirty percent acetic acid was added to the wells containing stained biofilm and incubated for 20 min at 25° C. The solution was transferred to a new well plate and optical density was measured at 570 nm.
# [5] = tested on: P. aeruginosa planktonic phase; assay: Minimum inhibitory concentration (MIC80) in planktonic phase, broth microdilution, optical density 595 nm; conditions: 24 h, 80% growth inhibition
# Experimental: Pseudomonas aeruginosa (P. aeruginosa) PAO1 was used throughout the study. Blood agar and Brain heart infusion (BHI) solution were used for culturing P. aeruginosa. Prior to each experiment, P. aeruginosa was cultured on blood agar for 18 h at 37° C. A loopful of the overnight bacterial growth was inoculated into BHI medium, and incubated for 18 h in an orbital shaker (80 rpm) at 37° C. The resultant growth was harvested, washed twice in Phosphate Buffered Saline (PBS, pH 7.4) and resuspended. The concentration of P. aeruginosa was adjusted to 1×10^7 cells/mL by spectrophotometry and confirmed by hemocytometric counting. Briefly, bacterial cell suspension (5×10^5 cells/mL) were treated with the antibiotic in a concentration gradient and incubated in a 96 well microtiter plate for 24 h at 35° C. At the end of the incubation, the optical density of the bacterial growth was measured by a spectrophotometer at 595 nm. The lowest concentration of the antibiotic at which 80% of bacterial growth inhibition was achieved was considered as the MIC80 of this antibiotic against P. aeruginosa. The assay was performed quadruplicates at three times.
structure (smiles),measurement,setting,value
"NC[C@H]1O[C@H](O[C@H]2[C@H](O)[C@@H](O[C@H]3O[C@H](CO)[C@@H](O)[C@H](N)[C@H]3O)[C@H](N)C[C@@H]2N)[C@H](N)C[C@@H]1O [tobramycin, Tobramycin]",time dependent biofilm inhibition,[1],"After 18 h, tobramycin was superior"
same,MIC80,[2],1.4 µM
same,critical concentration needed for 80% inhibition of viable P. aeruginosa pre-formed biofilm (MIC80),[3],89.80 µM and 89.8 µM
same,increment of the biofilm biomass compared to control,"[4]; 1.40 μmol/L, 24 h",17%
same,biomass change versus untreated control,[4]; signed change,+17%
same,Minimum inhibitory concentration (MIC80),[5],1.4 µM
same,MIC80,[5]; Pseudomonas aeruginosa,1.4 µM
